Reference: US20220042033A1, “COMPOSITION AND METHOD FOR CONFERRING AND/OR ENHANCING TOLERANCE AGAINST HERBICIDES BY USING VARIANTS OF PPO” (FarmHannong Co., Ltd., priority 2017, published 2022)

Tests used:
[1] = test system: E. coli BT3(ΔPPO) transformed with Myxococcus xanthus MxPPO (SEQ ID NO: 3) variant A170L; test: Herbicide tolerance test in PPO-deficient E. coli BT3(ΔPPO), growth on plates; type: cell-based; details: Table 9, light, tiafenacil to 2000 μM, saflufenacil to 200 μM, flumioxazin to 100 μM
Method: (§2) The mutated CyPPO gene obtained from the Example 2 was transformed to BT3 (ΔPPO) strain which is deficient of PPO activity and cultured in LB media with PPO-inhibiting herbicide, thereby examining whether growth of transformed BT3 was not inhibited.
(§3) BT3 competent cells were transformed with the pET303-ApPPO1 and pET303-MxPPO plasmids and those with a mutation(s) constructed in Example 2 respectively, and were cultured in LB agar media containing carbenicillin (Gold Biotechnology, Co., Ltd.).
(§4) Single colony of E. coli transformed with each CyPPO gene was cultured in 3 ml of LB broth containing carbenicillin overnight, and then was subcultured until absorbance (OD600) reached 0.5 to 1. Then, it was diluted with LB broth to OD600=0.5. Again, the diluted solution was serially diluted 4 times by a factor of one tenth.
(§5) The LB agar media (LB 25 g/l, Bacto agar 15 g/l) containing carbenicillin (100 μg/ml) and 0 to 4,000 μM of various herbicides dissolved in DMSO was prepared. Next, 10 μl of each diluted solution was dropped on the plate and cultured at 37° C. under light (Tables 7, 9 and 10, FIGS. 2 to 6, 13 to 20) or dark (Tables 8 and 11, FIGS. 7 to 12, 21 to 24) for 16 to 20 hours. Then, the extent of tolerance was evaluated.
(§6) The extent of herbicide tolerance of the ApPPO1 or MxPPO mutated genes was evaluated by comparing that of mutated genes with that of ApPPO1 or MxPPO wild type. […]

[2] = molecular target: T1, Myxococcus xanthus MxPPO (protoporphyrinogen IX oxidase), wild type, SEQ ID NO: 3, fused to MBP (Myxococcus xanthus, UniProt P56601); test: PPO enzyme inhibition assay (IC50), MBP-fused PPO (Table 15); type: biochemical; details: protoporphyrinogen IX 50 μM, room temperature, 30 min
T1 construct: For encoding the PPO protein (MxPPO); made in house; host or cells: BL21 CodonPlus(DE3) E. coli

[3] = test system: E. coli BT3(ΔPPO) transformed with Myxococcus xanthus MxPPO (SEQ ID NO: 3) variant M365L; test: Herbicide tolerance test in PPO-deficient E. coli BT3(ΔPPO), growth on plates; type: cell-based; details: Table 9, light, tiafenacil to 2000 μM, saflufenacil to 200 μM, flumioxazin to 100 μM
Method: as §2, §3, §4, §5, §6

[4] = molecular target: Auxenochlorella protothecoides ApPPO1 (SEQ ID NO: 1) variant L389T, fused to MBP (Auxenochlorella protothecoides, UniProt A0A087SQM0, L389T); test: PPO enzyme inhibition assay (IC50), MBP-fused PPO; type: biochemical
[5] = molecular target: T2, Myxococcus xanthus MxPPO (SEQ ID NO: 3) variant V164A, fused to MBP (Myxococcus xanthus, UniProt P56601, V164A); test: PPO enzyme inhibition assay (IC50), MBP-fused PPO (Table 15); type: biochemical
T2 construct: For encoding the PPO protein (MxPPO); made in house; host or cells: BL21 CodonPlus(DE3) E. coli

[6] = test system: E. coli BT3(ΔPPO) transformed with Myxococcus xanthus MxPPO (SEQ ID NO: 3) variant M365V; test: Herbicide tolerance test in PPO-deficient E. coli BT3(ΔPPO), growth on plates; type: cell-based; details: Table 9, light, tiafenacil to 2000 μM, saflufenacil to 200 μM, flumioxazin to 100 μM
Method: as §2, §3, §4, §5, §6

[7] = test system: E. coli BT3(ΔPPO) transformed with Auxenochlorella protothecoides ApPPO1 (SEQ ID NO: 1) variant Y422T (YT); test: as above; type: cell-based; details: Table 7, light, 37° C., 16 to 20 hours, vs wild type at highest herbicide concentration
Method: as §2, §3, §4, §5
(§7) The extent of herbicide tolerance of the ApPPO1 or MxPPO mutated genes was evaluated by comparing that of mutated genes with that of ApPPO1 or MxPPO wild type. The relative tolerance was represented with “+” as a factor of 10 times.
(§8) In Tables 7 to 11, tolerance level was presented as ‘−’ of tolerance of wild type and of variants equivalent to that of wild type, and was done as ‘+’ per each 10 fold resistance until ‘+++++’ as maximal resistance. […] A dilution series (OD600=0.5, 0.05, 0.005, 0.0005, 0.00005) was made and spotted on LB agar plates supplemented with herbicides.

[8] = molecular target: Auxenochlorella protothecoides ApPPO1 (protoporphyrinogen IX oxidase), wild type, SEQ ID NO: 1, fused to MBP (Auxenochlorella protothecoides, UniProt A0A087SQM0); test: PPO enzyme inhibition assay (IC50), MBP-fused PPO; type: biochemical; details: ApPPO1 WT; 50 μM protoporphyrinogen IX, pH 8.0, room temperature, 30 min
[9] = molecular target: Auxenochlorella protothecoides ApPPO1 (SEQ ID NO: 1) variant F209A, fused to MBP (Auxenochlorella protothecoides, UniProt A0A087SQM0, F209A); test: PPO enzyme inhibition assay (IC50), MBP-fused PPO; type: biochemical
Method: (§9) Thus, PPO proteins of wild type and variants were expressed as fused to MBP and were used for experiments.
(§10) The following process for purification of PPO protein was performed in a 4° C. cold room. […] The column was washed with 3 column volumes of buffer and the presence of protein in the washing solution was examined. When the protein was no longer detected, the washing procedure was terminated. Then, the MBP-PPO protein was eluted with approximately 2 column volumes of buffer containing 20 mM maltose. The protein concentration of each eluent was determined and the elution was stopped when the protein was no longer detected. Ten microliter of each fraction was investigated for protein quantification and SDS-PAGE analysis. […]
(§11) Hundred and eighty microliters of a reaction mixture containing the purified PPO protein were placed in 96 well plates and 20 μl of purified PPO proteins were added. […] The reaction proceeded at room temperature for 30 min and the fluorescence of protoporphyrin IX was measured using Microplate reader (Sense, Hidex) (excitation: 405 nm; emission: 633 nm). […] To this, 2.7 N HCl was added, and the absorbance at 408 nm was measured. A standard curve was generated using standard protoporphyrin IX, and PPO activity was measured by calibration of protoporphyrin IX using the standard curve of protoporphyrin IX.

[10] = molecular target: Auxenochlorella protothecoides ApPPO1 (SEQ ID NO: 1) variant A215L, fused to MBP (Auxenochlorella protothecoides, UniProt A0A087SQM0, A215L); test: biochemical
Method: as §9, §10, §11

[11] = test system: wild type A. thaliana (Col-0 ecotype); test: Herbicide spray test on 4-week-old plants, wild type; type: in vivo, Arabidopsis thaliana; details: 100 ml of 1 μM tiafenacil and 0.05% Silwet L-77 per 0.24 m^2; within 7 days
Method: In order to examine PPO-inhibiting herbicide tolerance of the transgenic plants, 4-week-old plants were evenly sprayed with herbicide (100 ml of 1 μM tiafenacil and 0.05% Silwet L-77 (v/v)) in 40×60 cm area (0.24 m^2).

[12] = test system: E. coli BT3(ΔPPO) transformed with Myxococcus xanthus MxPPO (SEQ ID NO: 3) variant M365I; test: Herbicide tolerance test in PPO-deficient E. coli BT3(ΔPPO), growth on plates; type: cell-based; details: Table 9, light, tiafenacil to 2000 μM, saflufenacil to 200 μM, flumioxazin to 100 μM
[13] = test system: E. coli BT3(ΔPPO) transformed with Auxenochlorella protothecoides ApPPO1 wild type, SEQ ID NO: 1; test: as above; type: cell-based; details: ApPPO1 WT, 37° C., 16 to 20 hours
Method: (§1) Then, the extent of tolerance was evaluated.

[14] = test system: E. coli BT3(ΔPPO) transformed with Myxococcus xanthus MxPPO wild type, SEQ ID NO: 3; test: as above; type: cell-based; details: MxPPO WT, light
Method: as §1

[15] = molecular target: Auxenochlorella protothecoides ApPPO1 (SEQ ID NO: 1) variant A215C, fused to MBP (Auxenochlorella protothecoides, UniProt A0A087SQM0, A215C); test: PPO enzyme inhibition assay (IC50), MBP-fused PPO; type: biochemical
Method: as §9, §10, §11

[16] = molecular target: Auxenochlorella protothecoides ApPPO1 (SEQ ID NO: 1) variant V360M, fused to MBP (Auxenochlorella protothecoides, UniProt A0A087SQM0, V360M); test: PPO enzyme inhibition assay (IC50), MBP-fused PPO; type: biochemical
[17] = test system: E. coli BT3(ΔPPO) transformed with Myxococcus xanthus MxPPO (SEQ ID NO: 3) variant A170C; test: Herbicide tolerance test in PPO-deficient E. coli BT3(ΔPPO), growth on plates; type: cell-based; details: Table 9, light, tiafenacil to 2000 μM, saflufenacil to 200 μM, flumioxazin to 100 μM
Method: as §2, §3, §4, §5, §6

[18] = molecular target: T3, Myxococcus xanthus MxPPO (SEQ ID NO: 3) variant I168C, fused to MBP (Myxococcus xanthus, UniProt P56601, I168C); test: PPO enzyme inhibition assay (IC50), MBP-fused PPO (Table 15); type: biochemical
T3 construct: For encoding the PPO protein (MxPPO); made in house; host or cells: BL21 CodonPlus(DE3) E. coli

[19] = test system: E. coli BT3(ΔPPO) transformed with Auxenochlorella protothecoides ApPPO1 (SEQ ID NO: 1) variant A215C (AC); test: Herbicide tolerance test in PPO-deficient E. coli BT3(ΔPPO), growth on plates; type: cell-based; details: Table 7, light, 37° C., 16 to 20 hours, vs wild type at highest herbicide concentration
Method: as §2, §3, §4, §5, §7, §8

Auxenochlorella protothecoides ApPPO1 (SEQ ID NO: 1) variant L389T, fused to MBP, sequence (A0A087SQM0 entry or part of it L389T): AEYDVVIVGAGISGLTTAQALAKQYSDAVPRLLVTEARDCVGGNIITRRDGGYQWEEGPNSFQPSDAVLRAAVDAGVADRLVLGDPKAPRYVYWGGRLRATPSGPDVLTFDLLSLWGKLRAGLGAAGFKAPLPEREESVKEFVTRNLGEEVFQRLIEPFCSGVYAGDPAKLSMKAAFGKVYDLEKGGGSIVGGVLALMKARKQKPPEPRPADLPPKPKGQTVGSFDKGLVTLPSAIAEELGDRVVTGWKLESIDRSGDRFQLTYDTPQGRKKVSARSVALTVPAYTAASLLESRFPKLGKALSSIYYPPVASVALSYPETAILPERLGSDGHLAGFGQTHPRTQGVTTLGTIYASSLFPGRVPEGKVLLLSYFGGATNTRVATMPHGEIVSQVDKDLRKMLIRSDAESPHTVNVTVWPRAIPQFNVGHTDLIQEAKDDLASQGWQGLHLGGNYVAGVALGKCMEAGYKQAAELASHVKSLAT
Auxenochlorella protothecoides ApPPO1 (SEQ ID NO: 1) variant F209A, fused to MBP, sequence (A0A087SQM0 entry or part of it F209A): as the sequence (A0A087SQM0 entry or part of it L389T) above, with F159A, T339L counted along it
T1 sequence (P56601 whole entry, the tested form may be a part): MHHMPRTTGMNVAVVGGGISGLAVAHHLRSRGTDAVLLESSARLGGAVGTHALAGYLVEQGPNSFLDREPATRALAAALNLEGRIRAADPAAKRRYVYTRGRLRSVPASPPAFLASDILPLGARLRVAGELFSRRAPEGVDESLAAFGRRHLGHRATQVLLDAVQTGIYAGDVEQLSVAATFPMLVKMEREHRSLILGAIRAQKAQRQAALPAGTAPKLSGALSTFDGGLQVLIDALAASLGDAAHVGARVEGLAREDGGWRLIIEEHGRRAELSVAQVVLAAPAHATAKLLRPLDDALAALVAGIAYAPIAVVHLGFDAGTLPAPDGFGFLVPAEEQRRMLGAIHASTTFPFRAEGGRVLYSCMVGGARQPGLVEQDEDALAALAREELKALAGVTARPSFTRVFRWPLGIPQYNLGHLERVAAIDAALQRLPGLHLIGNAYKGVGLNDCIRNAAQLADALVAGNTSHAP
Auxenochlorella protothecoides ApPPO1 (SEQ ID NO: 1) variant A215L, fused to MBP, sequence (A0A087SQM0 entry or part of it A215L): as the sequence (A0A087SQM0 entry or part of it L389T) above, with A165L, T339L counted along it
Auxenochlorella protothecoides ApPPO1 (SEQ ID NO: 1) variant V360M, fused to MBP, sequence (A0A087SQM0 entry or part of it V360M): as the sequence (A0A087SQM0 entry or part of it L389T) above, with V310M, T339L counted along it
T3 sequence (P56601 whole entry I168C, the tested form may be a part): as the sequence (P56601 whole entry, the tested form may be a part) above, with I168C counted along it
T2 sequence (P56601 whole entry V164A, the tested form may be a part): as the sequence (P56601 whole entry, the tested form may be a part) above, with V164A counted along it
Auxenochlorella protothecoides ApPPO1 (protoporphyrinogen IX oxidase), wild type, SEQ ID NO: 1, fused to MBP, sequence (A0A087SQM0 51-532): as the sequence (A0A087SQM0 entry or part of it L389T) above, with T339L counted along it
Auxenochlorella protothecoides ApPPO1 (SEQ ID NO: 1) variant A215C, fused to MBP, sequence (A0A087SQM0 entry or part of it A215C): as the sequence (A0A087SQM0 entry or part of it L389T) above, with A165C, T339L counted along it

Q: Which “relative herbicide tolerance level” value [1] does the source give for `COC(=O)CCNC(=O)C(C)Sc1cc(-n2c(=O)cc(C(F)(F)F)n(C)c2=O)c(F)cc1Cl` (stereo not drawn) [tiafenacil] here?
A: + (1-9 fold higher tolerance)

Q: And the IC50 [2]?
A: 0.242 µM

Q: What about the “relative herbicide tolerance level” value [3] of the same compound?
A: + (1-9 fold higher tolerance)

Q: And the IC50 [4]?
A: 0.716 µM

Q: And the IC50 [5]?
A: 0.367 µM

Q: And the “relative herbicide tolerance level” value [6]?
A: + (1-9 fold higher tolerance)

Q: And the “relative herbicide tolerance level” value [7]?
A: ++ (10-99 fold higher tolerance)

Q: And the IC50 [8]?
A: 0.021 µM

Q: What about the IC50 [9] of the same compound?
A: 0.069 µM

Q: What about the IC50 [10] of the same compound?
A: 3.46 µM

Q: And the “plant damage after spraying” value [11]?
A: completely died within 7 days after treatment

Q: And the “relative herbicide tolerance level” value [12]?
A: + (1-9 fold higher tolerance)

Q: And the “relative herbicide tolerance level” value ([13]; Table 7, light, vs wild type at highest herbicide concentration)?
A: −

Q: What about the “relative herbicide tolerance level” value ([13]; Table 8, dark, tiafenacil to 200 μM, flumioxazin to 100 μM, sulfentrazone to 400 μM) of the same compound?
A: −

Q: What about the “relative herbicide tolerance level” value ([14]; Table 9, tiafenacil to 2000 μM, saflufenacil to 200 μM, flumioxazin to 100 μM) of the same compound?
A: −

Q: And the “relative herbicide tolerance level” value ([14]; Table 10, tiafenacil 2000 μM, flumioxazin to 400 μM, sulfentrazone to 1000 μM)?
A: −

Q: What about the IC50 [15] of the same compound?
A: 0.076 µM

Q: And the IC50 [16]?
A: 0.075 µM

Q: And the “relative herbicide tolerance level” value [17]?
A: + (1-9 fold higher tolerance)

Q: And the IC50 [18]?
A: 0.55 µM

Q: And the “relative herbicide tolerance level” value [19]?
A: + (1-9 fold higher tolerance)
